Experimental data taken from PubChem BioAssay AID2060484 (Molecular Pharmacology Branch, DTP, NCI, 2025).

System: SUM149PT spheroids with HUVEC/MSC, viability
Assay: Anticancer human tumor SUM149PT cell line growth inhibition [GQUAD];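 further: spheroids exposed to drugs for seven days before readout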;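 on viability, T/C: percent viability relative to DMSO vehicle control taken as 100%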
Conditions: for IC50: curve of first compound; for viability, T/C: stronger effect = lower value
Source text: DNA G-quadruplex Stabilizer Agents in Combinations in Complex Spheroids
A high-throughput screen of multi-cell type tumor spheroids was designed to identify active combinations of DNA G-quadruplex stabilizer agents and targeted small molecules. Complex spheroids include a stromal component modeled by human endothelial cells (HUVEC) and fibroblasts modeled by human mesenchymal stem cells (MSCs). The concentration ranges selected for each drug and investigational agent were based upon clinically achievable concentrations if the clinical Cmax of the agent was known.
Compounds. The drugs and investigational agents: pidnarulex (CX-5461; NSC782164), APTO-253 (NSC789042), BRACO-19 (NSC847499), peposertib (NSC802822), ceralasertib (NSC780249), elimusertib (NSC800525), camonsertib (NSC841442), AZD-1390 (NSC803789), olaparib (NSC753686), talazoparib (NSC767125), ART-558 (NSC835418), sotorasib (NSC818433), MRTX-1133 (NSC836407), SN-38 (NSC673596), topotecan (NSC609699), etoposide (NSC141540), doxorubicin (NSC123127), gemcitabine (NSC613327), 5-fluorouracil (NSC19893), paclitaxel (NSC125973), vemurafenib (NSC761431), panobinostat (NSC761190), R-306465 (JNJ-16241199; NSC773264), adavosertib (NSC754352), TP-3654 (NSC805149), carboplatin (NSC241240), KSQ-4279 (NSC840948), and staurosporine (NSC755774) were obtained from the National Cancer Institute (NCI) Developmental Therapeutics Program Chemical Repository (34). The FDA-approved anticancer drug set is available from the NCI Developmental Therapeutics Program. […] The stock solutions were prepared in dimethyl sulfoxide (DMSO, Sigma-Aldrich, St. Louis, MO, cat. D2650) at 800-fold the tested concentration and stored at -70 degrees C prior to their use. All drugs and investigational agents were tested over a range starting from a high concentration at or near the clinical Cmax and decreasing in half-log increments. If the clinical Cmax for an agent had not been determined, the highest concentration tested was 10 microM.
2.3 Cell Culture. All cells were maintained in an incubator at 37 degrees C and 5% CO2 with 95% humidity. The PDC lines were cultured according to standard operating procedures established by the NCI PDMR. All PDCs were thawed and cultured in Matrigel-coated flasks prepared with a working solution of 1X Ham's F-12 nutrient mix, without supplementation (Invitrogen, cat. 11765054), 100 U/mL penicillin-streptomycin (Invitrogen, cat. 15140122), and 2.5% Matrigel (Corning Inc., cat. 354248) for the first three passages. The 857933-349-R-J2-PDC line was cultured in 6C/Colon 1B media, which includes advanced DMEM/F-12 (Thermo Fisher Scientific, cat. 12634028), 10 mM HEPES (Thermo Fisher Scientific, cat. 15630080), 1X GlutaMAX supplement (Thermo Fisher Scientific, cat. 35050061), 0.1 mg/mL primocin (InvivoGen, cat. ant-pm-2), 10% defined fetal bovine serum, heat inactivated (HyClone Laboratories Inc., cat. SH30070.03HI), 50% L-WRN conditioned media (ATCC, cat. CRL-3276), 1.25 mM N-Acetyl-L-cysteine (Sigma-Aldrich, cat. A9165), 10 mM nicotinamide (Sigma-Aldrich, cat. N0636), 1X B-27 supplement (Thermo Fisher Scientific, cat. 17504044), 1X N-2 supplement (Thermo Fisher Scientific, cat. 17502048), 10 microM Y-27632 dihydrochloride (Tocris Bioscience, cat. 1254), and 50 ng/mL human EGF recombinant protein (Thermo Fisher Scientific, cat. PHG0311). The 485176-168-R4-J1-PDC line was cultured in Panc media, which includes all 6C/Colon 1B media components plus 100 ng/mL human FGF-10 (Thermo Fisher Scientific, cat. 100-26), 500 nM SB-431542 (Selleckchem, cat. S1067), and gastrin (Tocris, cat. 3006).
[…]

[1] = second compound 0.0316 µM, first compound 0.0316 µM
[2] = second compound 0.0316 µM, first compound 0.1 µM
[3] = second compound 0.0316 µM, first compound 0.316 µM
[4] = second compound 0.0316 µM, first compound 1 µM
[5] = second compound 0.0316 µM, first compound 3.16 µM
[6] = second compound 0.0316 µM, first compound 10 µM
[7] = second compound 0.1 µM, first compound 0.0316 µM
[8] = second compound 0.1 µM, first compound 0.1 µM
[9] = second compound 0.1 µM, first compound 0.316 µM
[10] = second compound 0.1 µM, first compound 1 µM
[11] = second compound 0.1 µM, first compound 3.16 µM
[12] = second compound 0.1 µM, first compound 10 µM
[13] = second compound 0.316 µM, first compound 0.0316 µM
[14] = second compound 0.316 µM, first compound 0.1 µM
[15] = second compound 0.316 µM, first compound 0.316 µM
[16] = second compound 0.316 µM, first compound 1 µM
[17] = second compound 0.316 µM, first compound 3.16 µM
[18] = second compound 0.316 µM, first compound 10 µM
[19] = second compound 1 µM, first compound 0.0316 µM
[20] = second compound 1 µM, first compound 0.1 µM
[21] = second compound 1 µM, first compound 0.316 µM
[22] = second compound 1 µM, first compound 1 µM
[23] = second compound 1 µM, first compound 3.16 µM
[24] = second compound 1 µM, first compound 10 µM
[25] = second compound 3.16 µM, first compound 0.0316 µM
[26] = second compound 3.16 µM, first compound 0.1 µM
[27] = second compound 3.16 µM, first compound 0.316 µM
[28] = second compound 3.16 µM, first compound 1 µM
[29] = second compound 3.16 µM, first compound 3.16 µM
[30] = second compound 3.16 µM, first compound 10 µM
[31] = second compound 10 µM, first compound 0.0316 µM
[32] = second compound 10 µM, first compound 0.1 µM
[33] = second compound 10 µM, first compound 0.316 µM
[34] = second compound 10 µM, first compound 1 µM
[35] = second compound 10 µM, first compound 3.16 µM
[36] = second compound 10 µM, first compound 10 µM

CC1COCCN1c1cc(C2(S(C)(=N)=O)CC2)nc(-c2ccnc3[nH]ccc23)n1 (centres undefined) + CN(C)c1ccc(Nc2c3ccc(NC(=O)CCN4CCCC4)cc3nc3cc(NC(=O)CCN4CCCC4)ccc23)cc1
IC50 (second compound 0.0316 µM): 2650 nM | IC50 (second compound 0.1 µM): 2760 nM | IC50 (second compound 0.316 µM): 2310 nM | IC50 (second compound 1 µM): 2230 nM | IC50 (second compound 3.16 µM): 1900 nM | IC50 (second compound 10 µM): 1920 nM | viability, T/C [1]: 106% | viability, T/C [2]: 91.5% | viability, T/C [3]: 97.2% | viability, T/C [4]: 80.9% | viability, T/C [5]: 44.2% | viability, T/C [6]: 29.4% | viability, T/C [7]: 97.8% | viability, T/C [8]: 103% | viability, T/C [9]: 81.5% | viability, T/C [10]: 89.4% | viability, T/C [11]: 44.7% | viability, T/C [12]: 25.2% | viability, T/C [13]: 90.3% | viability, T/C [14]: 90.4% | viability, T/C [15]: 83.2% | viability, T/C [16]: 74.7% | viability, T/C [17]: 40.4% | viability, T/C [18]: 29.6% | viability, T/C [19]: 90.4% | viability, T/C [20]: 82.7% | viability, T/C [21]: 77.5% | viability, T/C [22]: 69.5% | viability, T/C [23]: 41.1% | viability, T/C [24]: 22.5% | viability, T/C [25]: 84.2% | viability, T/C [26]: 90.7% | viability, T/C [27]: 86.1% | viability, T/C [28]: 69.7% | viability, T/C [29]: 34.3% | viability, T/C [30]: 23.4% | viability, T/C [31]: 95.8% | viability, T/C [32]: 81.4% | viability, T/C [33]: 88.6% | viability, T/C [34]: 67% | viability, T/C [35]: 36.9% | viability, T/C [36]: 24.9%

COc1ccc([C@@H](O)c2cc(-c3ncnc4cc(N5CCOCC5)ccc34)c(F)cc2Cl)nn1 + CN(C)c1ccc(Nc2c3ccc(NC(=O)CCN4CCCC4)cc3nc3cc(NC(=O)CCN4CCCC4)ccc23)cc1
IC50 (second compound 0.0316 µM): 1870 nM | IC50 (second compound 0.1 µM): 1170 nM | IC50 (second compound 0.316 µM): 1160 nM | IC50 (second compound 1 µM): 1020 nM | IC50 (second compound 3.16 µM): 960 nM | IC50 (second compound 10 µM): 844 nM | viability, T/C [1]: 103% | viability, T/C [2]: 86% | viability, T/C [3]: 73.1% | viability, T/C [4]: 63% | viability, T/C [5]: 38.2% | viability, T/C [6]: 32.1% | viability, T/C [7]: 89.1% | viability, T/C [8]: 92.2% | viability, T/C [9]: 80.6% | viability, T/C [10]: 52.4% | viability, T/C [11]: 34.3% | viability, T/C [12]: 28.8% | viability, T/C [13]: 88.1% | viability, T/C [14]: 87.4% | viability, T/C [15]: 71.5% | viability, T/C [16]: 53.7% | viability, T/C [17]: 34.3% | viability, T/C [18]: 29.1% | viability, T/C [19]: 91.5% | viability, T/C [20]: 82.8% | viability, T/C [21]: 77.2% | viability, T/C [22]: 50.3% | viability, T/C [23]: 31.8% | viability, T/C [24]: 29.2% | viability, T/C [25]: 82.6% | viability, T/C [26]: 80% | viability, T/C [27]: 75.3% | viability, T/C [28]: 46.8% | viability, T/C [29]: 33.7% | viability, T/C [30]: 22.9% | viability, T/C [31]: 79.9% | viability, T/C [32]: 78.8% | viability, T/C [33]: 73.1% | viability, T/C [34]: 44.2% | viability, T/C [35]: 31.4% | viability, T/C [36]: 20.7%
